Like-named read-outs stand apart in the source and are kept apart here.
Tests used:
Type in all cases: physicochemical
[1] = Interconversion study of potassium salt Form 1 and Form 2 (slurry of equal amounts); settings: for XRPD result: 20 V, stirred overnight
Method: Interconversion study were performed in MeOH/EA (1/9, RT or 50° C.) and acetone/water (20/1, RT or 50° C.). Equal amounts of Form 1 and Form 2 were slurried in specified solvents at different temperatures for certain time.

[2] = Solid state stability at 60° C. and 40° C./75% RH for 7 days (HPLC purity, XRPD); settings: for chemical and physical stability: 40° C./75% RH and 60° C. for 7 days; for Purity at Day 7 (Area %) 40° C./75% RH: 7 days at 40° C./75% RH; for Purity at Day 7 (Area %) 40° C./75% RH / Purity at Day 7 (Area %) 60° C.: HPLC; for Purity at Day 7 (Area %) 60° C.: 7 days at 60° C.; for XRPD 40° C./75% RH: crystal form after 7 days at 40° C./75% RH; for XRPD 60° C.: crystal form after 7 days at 60° C.; for Initial Purity (Area %): day 0, HPLC
Method: HPLC analysis was performed with an Agilent HPLC 1260 series instrument.
Appropriate amount of free acid Form I, potassium salts Form 1 and Form 2, and sodium salt Form A were placed at 60° C. and 40° C./75% RH for 7 days. At 0 and 7 days, the samples were dissolved in diluent to prepare a solution of 0.5 mg/mL for HPLC purity analysis. Solid samples were analyzed by XRPD to check the crystal form.

[3] = Dynamic Vapor Sorption (DVS); settings: for hygroscopicity: DVS; for water uptake / weight gain by DVS: at 80% RH (Form I: 0 to 80% RH), 25° C.
Method: Dynamic Vapor Sorption (DVS): Moisture sorption/desorption data was collected on a IGASorp DVS. The sample was placed into a tarred sample chamber and weighed automatically. The sample was dried at 50° C. until the % RH was less than 0.3% and cooled to 25° C. Set the instrument parameters as below.

[4] = Solubility in water and bio-relevant media at 37° C. (HPLC of filtrate, pH of filtrate, XRPD of filter cake); settings: for solubility at 0.5 h / solubility at 2 h / solubility at 24 h: 37 °C, thermodynamic from solid; for solubility at 0.5 h / Solubility (mg/mL) 2 h / Solubility (mg/mL) 24 h / Solubility (mg/mL) 0.5 h / solubility at 2 h / solubility at 24 h: 37° C.; for solubility at 0.5 h: read-out: Solubility (mg/mL) 0.5 h; for XRPD: filter cake obtained at 2 or 24 hours; for PH 0.5 h / PH 2 h / PH 24 h: pH of the filtrate; for solubility at 2 h: read-out: Solubility (mg/mL) 2 h; for solubility at 24 h: read-out: Solubility (mg/mL) 24 h
Method: Solubility of Form I of free acid, Form 1 and Form 2 of potassium salt, and Form A of sodium salt were tested in water and in bio-relevant media of Simulated Intestinal Fluid (SIF), Simulated Gastric Fluid (SGF), Fasted State Simulated Intestinal Fluid (FaSSIF), and Fed State Simulated Intestinal Fluid (FeSSIF) at 37° C. up to 24 hours. About 12 mg of the sample was weighed into sample vials and then 1.5 mL of each media was added to make suspensions respectively. All suspensions were shaken at 37° C. with 200 rpm.

[5] = FaSSIF (Fasted State Simulated Intestinal Fluid), fassif, FaSSIF, LOQ is 0.5 μg/mL
[6] = FeSSIF (Fed State Simulated Intestinal Fluid), fessif, FeSSIF
[7] = water, water, Water, LOQ is 0.5 μg/mL

## Cc1nn(-c2cc(Cl)c(Oc3cc(C(C)C)c(=O)[nH]n3)c(Cl)c2)c(=O)[n-]c1=O.[K+] [Potassium Salts Form 1 and 2]
[1]; 50° C., Acetone/Water (19/1)
  XRPD result: Form 2
[1]; 50° C., MeOH/EtOAc (1/9)
  XRPD result: Form 1
[1]; RT, Acetone/Water (19/1)
  XRPD result: Form 2
[1]; RT, MeOH/EtOAc (1/9)
  XRPD result: Form 1

## Cc1nn(-c2cc(Cl)c(Oc3cc(C(C)C)c(=O)[nH]n3)c(Cl)c2)c(=O)[n-]c1=O.[K+] [Potassium salt Form 2]
[2]
  chemical and physical stability: chemically and physically stable
  Purity at Day 7 (Area %) 40° C./75% RH: 98.97 Area %
  Purity at Day 7 (Area %) 60° C.: 99.07 Area %
  XRPD 40° C./75% RH: Unchanged
  XRPD 60° C.: Unchanged
  Initial Purity (Area %): 99.04 Area %
[3]; 80% RH, forms of potassium salt of Compound 1
  DVS Water % at 80% RH: 1.6%
[3]
  hygroscopicity: slight hygroscopic
  water uptake / weight gain by DVS: 1.6%
[3]; XRPD after DVS
  crystal form of solid after the DVS study: remained unchanged
[4]; [5]
  solubility at 0.5 h: 0.0011 mg/mL
[4]; FaSSIF, LOQ is 0.5 μg/mL
  Solubility (mg/mL) 2 h: 0.015 mg/mL
[4]; FaSSIF
  Solubility (mg/mL) 24 h: 0.0070 mg/mL
  XRPD: Free acid
  PH 0.5 h: 7.04
  PH 2 h: 7.49
  PH 24 h: 7.90
[4]; FeSSIF
  Solubility (mg/mL) 0.5 h: 0.0041 mg/mL
  Solubility (mg/mL) 2 h: 0.013 mg/mL
  Solubility (mg/mL) 24 h: 0.022 mg/mL
  XRPD: Free acid
  PH 0.5 h: 5.09
  PH 2 h: 5.24
  PH 24 h: 5.17
[4]; SGF, LOQ is 0.5 μg/mL
  Solubility (mg/mL) 0.5 h: <LOQ
  Solubility (mg/mL) 2 h: <LOQ
  Solubility (mg/mL) 24 h: <LOQ
[4]; SIF, LOQ is 0.5 μg/mL
  Solubility (mg/mL) 0.5 h: <LOQ
  Solubility (mg/mL) 2 h: <LOQ
  Solubility (mg/mL) 24 h: <LOQ
[4]; Water, LOQ is 0.5 μg/mL
  Solubility (mg/mL) 0.5 h: 4.63 mg/mL
  Solubility (mg/mL) 2 h: 6.69 mg/mL
  Solubility (mg/mL) 24 h: 6.71 mg/mL
[4]; SGF
  XRPD: Free acid
  PH 0.5 h: 1.35
  PH 2 h: 1.25
  PH 24 h: 1.25
[4]; SIF
  XRPD: Free acid
  PH 0.5 h: 7.43
  PH 2 h: 7.51
  PH 24 h: 7.46
[4]; Water
  XRPD: Free acid
  PH 0.5 h: 10.49
  PH 2 h: 10.62
  PH 24 h: 10.42
[1]; slurry in MeOH/EA and acetone/water, RT or 50° C.
  relative stability of Form 1 and Form 2: more stable in aqueous solution

## Cc1nn(-c2cc(Cl)c(Oc3cc(C(C)C)c(=O)[nH]n3)c(Cl)c2)c(=O)[n-]c1=O.[Na+] [Sodium salt Form A]
[2]
  chemical and physical stability: chemically and physically stable
  Purity at Day 7 (Area %) 40° C./75% RH: 98.02 Area %
  Purity at Day 7 (Area %) 60° C.: 98.01 Area %
  XRPD 40° C./75% RH: Unchanged
  XRPD 60° C.: Unchanged
  Initial Purity (Area %): 97.98 Area %
[3]
  hygroscopicity: slightly hygroscopic
  water uptake / weight gain by DVS: about 1.6%
[4]; [5]
  solubility at 0.5 h: 0.0013 mg/mL
  solubility at 2 h: 0.015 mg/mL
[4]; FaSSIF (Fasted State Simulated Intestinal Fluid), fassif, FaSSIF
  solubility at 24 h: 0.013 mg/mL
[4]; [6]
  solubility at 0.5 h: 0.0011 mg/mL
  solubility at 2 h: 0.0029 mg/mL
  solubility at 24 h: 0.012 mg/mL
[4]; SGF, LOQ is 0.5 μg/mL
  Solubility (mg/mL) 0.5 h: <LOQ
  Solubility (mg/mL) 2 h: <LOQ
  Solubility (mg/mL) 24 h: <LOQ
[4]; SIF, LOQ is 0.5 μg/mL
  Solubility (mg/mL) 0.5 h: <LOQ
  Solubility (mg/mL) 2 h: <LOQ
  Solubility (mg/mL) 24 h: <LOQ
[4]; FaSSIF
  XRPD: Free acid
  PH 0.5 h: 7.07
  PH 2 h: 7.33
  PH 24 h: 8.27
[4]; FeSSIF
  XRPD: Free acid
  PH 0.5 h: 5.09
  PH 2 h: 5.18
  PH 24 h: 5.26
[4]; SGF
  XRPD: Free acid
  PH 0.5 h: 1.24
  PH 2 h: 1.24
  PH 24 h: 1.24
[4]; SIF
  XRPD: Free acid
  PH 0.5 h: 7.23
  PH 2 h: 7.60
  PH 24 h: 7.65
[4]; Water
  XRPD: Free acid +
  PH 0.5 h: 10.76
  PH 2 h: 10.81
  PH 24 h: 10.63
[4]; [7]
  solubility at 0.5 h: 2.8 mg/mL
  solubility at 2 h: 3.51 mg/mL
  solubility at 24 h: 4.57 mg/mL
